Measurements from patent US7807676B2, “Diketo-Piperazine and Piperidine derivatives as antiviral agents” (priority 2006, dated 2010).
Structures can show the parent of a compound that is named as a salt.

Tested on: HIV-1 single-round infectious reporter virus
Test: Single-round infectious HIV-1 luciferase reporter virus infection of HeLa CD4 cells (antiviral EC50)
Assay type: cell-based
Details: Human immunodeficiency virus 1, HeLa, read-out: EC50 Group from Table 3
Method: • Virus production—Human embryonic Kidney cell line, 293T, was propagated in Dulbecco's Modified Eagle Medium (Invitrogen, Carlsbad, Calif.) containing 10% fetal Bovine serum (FBS, Sigma, St. Louis, Mo.). • Virus infection—Human epithelial cell line, HeLa, expressing the HIV-1 receptor CD4 was propagated in Dulbecco's Modified Eagle Medium (Invitrogen, Carlsbad, Calif.) containing 10% fetal Bovine serum (FBS, Sigma, St. Louis, Mo.) and supplemented with 0.2 mg/mL Geneticin (Invitrogen, Carlsbad, Calif.). Virus-Single-round infectious reporter virus was produced by co-transfecting human embryonic Kidney 293 cells with an HIV-1 envelope DNA expression vector and a proviral cDNA containing an envelope deletion mutation and the luciferase reporter gene inserted in place of HIV-1 nef sequences (Chen et al, Ref. 41). Transfections were performed using lipofectAMINE PLUS reagent as described by the manufacturer (Invitrogen, Carlsbad, Calif.). Experiment • 1. HeLa CD4 cells were plated in 96 well plates at a cell density of 1×10^4 cells per well in 100 μl Dulbecco's Modified Eagle Medium containing 10% fetal Bovine serum and incubated overnight. • 2. Compound was added in a 2 μl dimethylsulfoxide solution, so that the final assay concentration would be ≦10 μM. • 3. 100 μl of single-round infectious reporter virus in Dulbecco's Modified Eagle Medium was then added to the plated cells and compound at an approximate multiplicity of infection (MOI) of 0.01, resulting in a final volume of 200 μl per well. • 4. Virally-infected cells were incubated at 37 degrees Celsius, in a CO2 incubator, and harvested 72 h after infection. • 5. Viral infection was monitored by measuring luciferase expression from viral DNA in the infected cells using a luciferase reporter gene assay kit, as described by the manufacturer (Roche Molecular Biochemicals, Indianapolis, Ind.). Infected cell supernatants were removed and 50 μl of lysis buffer was added per well. After 15 minutes, 50 μl of freshly-reconstituted luciferase assay reagent was added per well. Luciferase activity was then quantified by measuring luminescence using a Wallac microbeta scintillation counter. • 6. The percent inhibition for each compound was calculated by quantifying the level of luciferase expression in cells infected in the presence of each compound as a percentage of that observed for cells infected in the absence of compound and subtracting such a determined value from 100. • 7. An EC50 provides a method for comparing the antiviral potency of the compounds of this disclosure. The effective concentration for fifty percent inhibition (EC50) was calculated with the Microsoft Excel Xlfit curve fitting software. For each compound, curves were generated from percent inhibition calculated at 10 different concentrations by using a four parameter logistic model (model 205). Table 3 is the key for the data in Table 4. Results

| SMILES | EC50 |
| --- | --- |
| C[C@@H]1CN(C(=O)C(=O)c2c[nH]c3c(Cl)ncc(O)c23)CCN1c1nnnn1-c1ccccc1 [A-56] | > 500 nM |
| COc1cnc(-c2cc(C(=O)NCCN3CCOCC3)[nH]n2)c2[nH]cc(C(=O)C(=O)N3CCN(c4nnnn4-c4ccccc4)CC3)c12 [B-13, 3-(4-methoxy-3-(2-oxo-2-(4-(1-phenyl-1H-tetrazol-5-yl)piperazin-1-yl)acetyl)-1H-pyrrolo[2,3-c]pyridin-7-yl)-N-(2-morpholinoethyl)-1H-pyrazole-5-carboxamide.TFA] | < 500 nM |
| COc1cnc(-n2cnc(C)n2)c2[nH]cc(C(=O)C(=O)N3CCN(C4=NCCCN4c4ccccc4)CC3)c12 [A-39] | > 500 nM |
| COc1cnc(-n2cnc(C)n2)c2[nH]cc(C(=O)C(=O)N3CCN(c4nsnc4Cl)CC3)c12 [D-20] | < 500 nM |
| CCC(O)(CC)c1cc(-c2ncc(OC)c3c(C(=O)C(=O)N4CCN(c5nnnn5-c5ccccn5)CC4)c[nH]c23)n[nH]1 [B-78] | < 500 nM |
| O=C(C(=O)N1CCN(c2nc3ccccc3n2-c2ccccc2)CC1)c1c[nH]c2c(-n3ccnn3)ncc(F)c12 [A-37] | < 500 nM |
| COc1cnc(-c2ccn(CC(=O)O)n2)c2[nH]cc(C(=O)C(=O)N3CCN(c4nnnn4-c4ccccn4)CC3)c12 [B-75] | < 500 nM |
| COc1cnc(-n2cnc(C)n2)c2[nH]cc(C(=O)C(=O)N3CCN(c4nc(S(C)(=O)=O)nn4-c4ccccc4)CC3)c12 [G-28b] | < 500 nM |
| O=C(C(=O)N1CCN(c2ccnnc2-c2ccccc2)CC1)c1c[nH]c2c(-n3ccnn3)ncc(F)c12 [G-15a] | < 500 nM |
| COc1cnc(-c2cccnc2F)c2[nH]cc(C(=O)C(=O)N3CCN(c4nnnn4-c4ccccn4)CC3)c12 [H-2] | < 500 nM |
| COc1cnc(-n2cc(C)nn2)c2[nH]cc(C(=O)C(=O)N3CCN(c4nnnn4-c4ccccn4)CC3)c12 [G-31] | < 500 nM |
| COc1cnc(-n2cnc(C)n2)c2[nH]cc(C(=O)C(=O)N3CCN(c4cnnn4-c4ccccc4)CC3)c12 [G-30b] | < 500 nM |
| COc1cnc(-n2cnc(C)n2)c2[nH]cc(C(=O)C(=O)N3CCN(c4nnnn4-c4ccccc4)CC3)c12 [A-9] | < 500 nM |
| COc1cnc(-c2cncnc2)c2[nH]cc(C(=O)C(=O)N3CCN(c4nnnn4-c4ccccc4)CC3)c12 [B-63] | < 500 nM |
| O=C(C(=O)N1CCN(C2=NCCCN2c2ccccc2)CC1)c1c[nH]c2c(-n3ccnn3)ncc(F)c12 [A-40] | > 500 nM |
| COc1cnc(-n2cnc(C)n2)c2[nH]cc(C(=O)C(=O)N3CCN(c4ncccc4C)CC3)c12 [D-3] | < 500 nM |
| CCOc1ccccc1N1CCN(C(=O)C(=O)c2c[nH]c3c(-n4ccnn4)ncc(F)c23)CC1 [A-50] | < 500 nM |
| O=C(NCCCN1CCCC1=O)c1cc(-c2ncc(F)c3c(C(=O)C(=O)N4CCN(c5nnnn5-c5ccccc5)CC4)c[nH]c23)n[nH]1 [F-12] | < 500 nM |
| CO/N=C(\C)c1ncc(F)c2c(C(=O)C(=O)N3CCN(c4nnnn4-c4ccccc4)CC3)c[nH]c12 [B-48] | < 500 nM |
| COc1cnc(-n2cnc(C)n2)c2[nH]cc(C(=O)C(=O)N3CCC(N4CCN=C4c4ccccc4)CC3)c12 [G-10b] | > 500 nM |
| N#Cc1cccnc1N1CCN(C(=O)C(=O)c2c[nH]c3c(-n4ccnn4)ncc(F)c23)CC1 [D-4] | < 500 nM |
| O=C(C(=O)N1CCN(c2nnnn2-c2ccccc2)CC1)c1c[nH]c2c(-c3cc(C(=O)N4CCN(C(=O)C5CCCO5)CC4)[nH]n3)ncc(F)c12 (stereo not drawn) [F-4] | < 500 nM |
| O=C(C(=O)N1CCN(c2nnnn2-c2ccccc2)CC1)c1c[nH]c2c(-c3ccn(CCN4CCOCC4)n3)ncc(F)c12 [B-31] | < 500 nM |
| O=C(C(=O)N1CCN(c2ncnn2-c2ccccc2)CC1)c1c[nH]c2c(-n3ccnn3)ncc(F)c12 [G-27a] | < 500 nM |
| C[C@@H]1CN(c2nnnn2-c2ccccc2)[C@@H](C)CN1C(=O)C(=O)c1c[nH]c2c(-n3ccnn3)ncc(F)c12 [A-26] | < 500 nM |
| COc1cnc(-c2cc(CO)[nH]n2)c2[nH]cc(C(=O)C(=O)N3CCN(c4nnnn4-c4ccccc4)CC3)c12 [B-22, 1-(7-(5-(hydroxymethyl)-1H-pyrazol-3-yl)-4-methoxy-1H-pyrrolo[2,3-c]pyridin-3-yl)-2-(4-(1-phenyl-1H-tetrazol-5-yl)piperazin-1-yl)ethane-1,2-dione] | < 500 nM |

| SMILES | EC50 |
| --- | --- |
| O=C(C(=O)N1CCN(c2nnnn2-c2cccnc2)CC1)c1c[nH]c2c(-n3ccnn3)ncc(F)c12 [E-3] | < 500 nM |
| COc1cnccc1-c1ncc(OC)c2c(C(=O)C(=O)N3CCN(c4nnnn4-c4ccccn4)CC3)c[nH]c12 [H-5] | < 500 nM |
| COc1nc(-c2ncc(OC)c3c(C(=O)C(=O)N4CCN(c5nnnn5-c5ccccn5)CC4)c[nH]c23)cs1 [B-69] | < 500 nM |
| O=C(C(=O)N1CCN(c2ccccc2C2CCCCC2)CC1)c1c[nH]c2c(-n3ccnn3)ncc(F)c12 [A-42] | > 500 nM |
| CN(C)CCN(C)C(=O)c1cc(-c2ncc(F)c3c(C(=O)C(=O)N4CCN(c5nnnn5-c5ccccc5)CC4)c[nH]c23)n[nH]1 [B-35] | < 500 nM |
| COC(=O)c1ccc(F)c2c(C(=O)C(=O)N3CCN(c4nnnn4-c4ccccc4)CC3)c[nH]c12 [A-25] | < 500 nM |
| COc1cnc(-n2cnc(C)n2)c2[nH]cc(C(=O)C(=O)N3CCN(c4ccnnc4-c4ccccc4)CC3)c12 [G-15b] | < 500 nM |
| COc1cnc(-n2cnc(C)n2)c2[nH]cc(C(=O)C(=O)N3CCC(n4ccnc4-c4ccccc4)CC3)c12 [G-11b] | > 500 nM |
| O=C(C(=O)N1CCN(c2ccc(-c3ccccc3)cc2)CC1)c1c[nH]c2c(-n3ccnn3)ncc(F)c12 [A-2] | > 500 nM |
| COc1cnc(-c2cc(C(=O)NCCN(C)C)[nH]n2)c2[nH]cc(C(=O)C(=O)N3CCN(c4nnnn4-c4ccccc4)CC3)c12 [B-16, N-(2-(dimethylamino)ethyl)-3-(4-methoxy-3-(2-oxo-2-(4-(1-phenyl-1H-tetrazol-5-yl)piperazin-1-yl)acetyl)-1H-pyrrolo[2,3-c]pyridin-7-yl)-1H-pyrazole-5-carboxamide.TFA] | < 500 nM |
| O=C(C(=O)N1CCN(c2ncccc2I)CC1)c1c[nH]c2c(-n3ccnn3)ncc(F)c12 [D-5] | < 500 nM |
| C[C@@H]1CN(c2ncccc2N2CC(C)(C)C2=O)CCN1C(=O)C(=O)c1c[nH]c2c(-n3ccnn3)ncc(F)c12 [D-28] | > 500 nM |
| COc1cnc(-n2cnc(C)n2)c2[nH]cc(C(=O)C(=O)N3CCN(c4ncccc4C(=O)Nc4ccccc4)CC3)c12 [D-22] | > 500 nM |
| O=C(C(=O)N1CCN(c2nnnn2-c2ccccc2)CC1)c1c[nH]c2ncccc12 [A-10] | < 500 nM |
| COc1cnc(-n2cnc(C)n2)c2[nH]cc(C(=O)C(=O)N3CCN(c4c[nH]nc4-c4ccccc4)CC3)c12 [G-5b] | < 500 nM |
| O=C(NCCN1CCOCC1)c1cc(-c2ncc(F)c3c(C(=O)C(=O)N4CCN(c5c[nH]nc5-c5ccccc5)CC4)c[nH]c23)n[nH]1 [B-54] | < 500 nM |
| CNCc1nc(-c2ncc(OC)c3c(C(=O)C(=O)N4CCN(c5nnnn5-c5ccccc5)CC4)c[nH]c23)cs1 [B-59] | < 500 nM |
| CCOC(=O)CCC(=O)c1cccnc1N1CCN(C(=O)C(=O)c2c[nH]c3c(-n4ccnn4)ncc(F)c23)CC1 [D-40] | > 500 nM |
| O=C(O)c1cc(-c2ncc(F)c3c(C(=O)C(=O)N4CCN(c5nnnn5-c5ccccc5)CC4)c[nH]c23)n[nH]1 [B-34] | < 500 nM |
| O=C(C(=O)N1CCN(c2cnnn2-c2ccccc2)CC1)c1c[nH]c2c(-n3ccnn3)ncc(F)c12 [G-30a] | < 500 nM |
| COc1ccc(-c2ncc(OC)c3c(C(=O)C(=O)N4CCN(c5nnnn5-c5ccccn5)CC4)c[nH]c23)cn1 [H-10] | < 500 nM |
| CN(C)CCCNC(=O)c1cccnc1N1CCN(C(=O)C(=O)c2c[nH]c3c(-n4ccnn4)ncc(F)c23)CC1 [D-37] | > 500 nM |
| O=C(C(=O)N1CCN(c2cn[nH]c2-c2ccccn2)CC1)c1c[nH]c2c(-n3ccnn3)ncc(F)c12 [E-16, 1-(4-fluoro-7-(1H-1,2,3-triazol-1-yl)-1H-pyrrolo[2,3-c]pyridinyl-3-yl)-2-(4-(3-(pyridin-2-yl)-1H-pyrazol-4-yl)piperazin-1-yl)ethane-1,2-dione] | < 500 nM |
| COc1ccncc1-c1ncc(OC)c2c(C(=O)C(=O)N3CCN(c4nnnn4-c4ccccn4)CC3)c[nH]c12 [H-6] | < 500 nM |
| COc1cnc(-c2cc(CNCCO)[nH]n2)c2[nH]cc(C(=O)C(=O)N3CCN(c4nnnn4-c4ccccc4)CC3)c12 [B-24, 1-(7-(5-((2-hydroxyethylamino)methyl)-1H-pyrazol-3-yl)-4-methoxy-1H-pyrrolo[2,3-c]pyridin-3-yl)-2-(4-(1-phenyl-1H-tetrazol-5-yl)piperazin-1-yl)ethane-1,2-dione TFA] | < 500 nM |
